Laboratory results published in patent US20100137313A1 (ASTRAZENECA AB, priority 2008, published 2010).

target: S. pneumoniae Topoisomerase IV ATPase (ParE) (Streptococcus pneumoniae serotype 4, UniProt Q59961); assay: S. pneumoniae Topoisomerase IV ATPase inhibition; type: biochemical; settings: values marked * are an average of two or more data points, read-out: % Inh (13 μM) of S. pneumoniae Topoisomerase IV ATPase
Method in brief: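 Malachite green/ammonium molybdate phosphate detection, A650. 1.25 nM ParE, 160 μM ATP, sheared salmon sperm DNA 5 μg/ml, 20 mM Tris pH 8.0, 8.0 mM MgCl2. Controls: 2% DMSO = 0%, 20 μM EDTA = 100% inhibition; IC50 over 10 concentrations.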

Sequence of S. pneumoniae Topoisomerase IV ATPase (ParE) (Q59961 whole entry): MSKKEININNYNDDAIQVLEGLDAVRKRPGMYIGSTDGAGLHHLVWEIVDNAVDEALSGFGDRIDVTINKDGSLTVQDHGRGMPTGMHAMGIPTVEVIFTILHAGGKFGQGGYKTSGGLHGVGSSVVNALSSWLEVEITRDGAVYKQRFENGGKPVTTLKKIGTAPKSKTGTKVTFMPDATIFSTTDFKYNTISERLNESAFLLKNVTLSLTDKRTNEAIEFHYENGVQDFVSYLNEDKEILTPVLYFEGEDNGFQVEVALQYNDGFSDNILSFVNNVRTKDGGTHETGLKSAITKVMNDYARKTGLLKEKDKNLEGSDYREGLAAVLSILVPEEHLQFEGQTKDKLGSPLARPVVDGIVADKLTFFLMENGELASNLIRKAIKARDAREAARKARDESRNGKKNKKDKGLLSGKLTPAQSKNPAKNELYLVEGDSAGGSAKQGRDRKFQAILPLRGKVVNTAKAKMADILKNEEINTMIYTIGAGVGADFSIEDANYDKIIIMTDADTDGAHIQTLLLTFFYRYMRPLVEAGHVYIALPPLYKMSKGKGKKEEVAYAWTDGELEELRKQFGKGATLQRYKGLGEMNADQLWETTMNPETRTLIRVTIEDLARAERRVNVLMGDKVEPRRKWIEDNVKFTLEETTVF

Row | SMILES | inhibition at 13 µM [%]
1 | CN(C)C(=O)N1CCN(c2nc(Nc3ccc(F)c(Cl)c3)ncc2-c2cccc(/C=C/C(=O)O)c2)CC1 [Example 291, (E)-3-(3-(2-(3-chloro-4-fluorophenylamino)-4-(4-(dimethylcarbamoyl)-piperazin-1-yl)pyrimidin-5-yl)phenyl)acrylic acid] | 90.1
2 | Cc1cnc(C(=O)NCCCNc2nc(Nc3ccc(F)c(Cl)c3)ncc2-c2cccc(/C=C/C(=O)O)c2)cn1 [Example 292, (E)-3-(3-(2-(3-chloro-4-fluorophenylamino)-4-(3-(5-methylpyrazine-2-carboxamido)propylamino)-pyrimidin-5-yl)phenyl)acrylic acid] | 81
3 | COCCCNc1nc(Nc2ccc(F)c(Cl)c2)ncc1-c1cccc(/C=C/C(=O)O)c1 [Example 293, (E)-3-(3-(2-(3-chloro-4-fluorophenylamino)-4-(3-methoxypropylamino)-pyrimidin-5-yl)phenyl)acrylic acid] | 85.3
4 | O=C(O)/C=C/c1cccc(-c2cnc(Nc3ccc(F)c(Cl)c3)nc2N2CCCC2)c1 [Example 294, (E)-3-(3-(2-(3-chloro-4-fluorophenylamino)-4-(pyrrolidin-1-yl)pyrimidin-5-yl)phenyl)acrylic acid] | 73.2
5 | O=C(O)/C=C/c1cccc(-c2cnc(Nc3ccc(F)c(Cl)c3)nc2N[C@@H]2CCOC2)c1 [Example 295, (R,E)-3-(3-(2-(3-chloro-4-fluorophenylamino)-4-(tetrahydrofuran-3-ylamino)pyrimidin-5-yl)phenyl)acrylic acid] | 82.7
6 | Cn1cncc1CNc1nc(Nc2ccc(F)c(Cl)c2)ncc1-c1cccc(/C=C/C(=O)O)c1 [Example 296, (E)-3-(3-(2-(3-chloro-4-fluorophenylamino)-4-((1-methyl-1H-imidazol-5-yl)methylamino)pyrimidin-5-yl)phenyl)acrylic acid] | 77.6
7 | O=C(O)/C=C/c1cccc(-c2cnc(Nc3ccc(F)c(Cl)c3)nc2N2CCCCC2)c1 [Example 297, (E)-3-(3-(2-(3-chloro-4-fluorophenylamino)-4-(piperidin-1-yl)pyrimidin-5-yl)phenyl)acrylic acid] | 128
8 | Cn1cc(CNc2nc(Nc3ccc(F)c(Cl)c3)ncc2-c2cccc(/C=C/C(=O)O)c2)cn1 [Example 298, (E)-3-(3-(2-(3-chloro-4-fluorophenylamino)-4-((1-methyl-1H-pyrazol-4-yl)methylamino)pyrimidin-5-yl)phenyl)acrylic acid] | 80.7
9 | COCC(COC)Nc1nc(Nc2ccc(F)c(Cl)c2)ncc1-c1cccc(/C=C/C(=O)O)c1 [Example 299] | 98.7
10 | COCCN1CCN(c2nc(Nc3ccc(F)c(Cl)c3)ncc2-c2cccc(/C=C/C(=O)O)c2)CC1 [Example 300, (E)-3-(3-(2-(3-chloro-4-fluorophenylamino)-4-(4-(2-methoxyethyl)piperazin-1-yl)pyrimidin-5-yl)phenyl)acrylic acid] | 82.3
11 | CN1CCN(c2nc(Nc3ccc(F)c(Cl)c3)ncc2-c2cccc(/C=C/C(=O)O)c2)CC1 [Example 301, (E)-3-(3-(2-(3-chloro-4-fluorophenylamino)-4-(4-methylpierazin-1-yl)pyrimidin-5-yl)phenyl)acrylic acid] | 72.2
12 | CS(=O)(=O)N1CCN(c2nc(Nc3ccc(F)c(Cl)c3)ncc2-c2cccc(/C=C/C(=O)O)c2)CC1 [Example 302, (E)-3-(3-(2-(3-chloro-4-fluorophenylamino)-4-(4-(methylsulfonyl)piperazin-1-yl)pyrimidin-5-yl)phenyl)acrylic acid] | 83
13 | COCCn1cc(C(=O)O)c(=O)c2cc(-c3cnc(Nc4ccc(F)c(Cl)c4)nc3N3CCOCC3)ccc21 [Example 303, 6-(2-(3-chloro-4-fluorophenylamino)-4-morpholinopyrimidin-5-yl)-1-(2-methoxyethyl)-4-oxo-1,4-dihydroquinone-3-carboxylic acid] | 82
14 | COCCCNc1nc(Nc2ccc(F)c(Cl)c2)ncc1-c1ccc2c(c1)c(=O)c(C(=O)O)cn2CCOC [Example 304, 6-(2-(3-chloro-4-fluorophenylamino)-4-(3-methoxypropylamino)-pyrimidin-5-yl)-1-(2-methoxyethyl)-4-oxo-1,4-dihydroquinoline-3-carboxylic acid] | 55.8
15 | COCCCNc1nc(Nc2ccc(F)c(Cl)c2)ncc1-c1ccc2ncc(C(=O)O)cc2c1 [Example 305, 6-(2-(3-chloro-4-fluorophenylamino)-4-(3-methoxypropylamino)-pyrimidin-5-yl)quinoline-3-carboxylic acid] | 89.2
16 | O=C(O)c1cc2cc(-c3cnc(Nc4ccc(F)c(Cl)c4)nc3N3CCOCC3)ccc2s1 [Example 306, 5-(2-(3-chloro-4-fluorophenylamino)-4-morpholinopyrimidin-5-yl)benzo[b]thiophene-2-carboxylic acid] | 84.8
17 | COCCCNc1nc(Nc2ccc(F)c(Cl)c2)ncc1-c1ccc2sc(C(=O)O)cc2c1 [Example 307, 5-(2-(3-choloro-4-fluorophenylamino)-4-(3-methoxypropylamino)-pyrimidin-5-yl)benzo[b]thiophene-2-carboxylic acid] | 80.6
18 | O=C(O)c1cncc(-c2cnc(Nc3ccc(F)c(Cl)c3)nc2-n2cc(-c3ccncc3)cn2)c1 [Example 308, 5-{2-[(3-chloro-4-fluorophenyl)amino]-4-[4-(pyridin-4-yl)-1H-pyrazol-1-yl]pyrimidin-5-yl}pyridine-3-carboxylic acid] | 101
19 | O=C(O)c1cncc(-c2cnc(Nc3ccc(F)c(Cl)c3)nc2-n2cc(Cl)cn2)c1 [Example 309, 5-{2-[(3-chloro-4-fluorophenyl)amino]-4-(4-chloro-1H-pyrazol-1-yl)pyrimidin-5-yl}pyridine-3-carboxylic acid] | 69.4
20 | Cc1nccn1-c1nc(Nc2ccc(F)c(Cl)c2)ncc1-c1cncc(C(=O)O)c1 [Example 310, 5-{2-[(3-chloro-4-fluorophenyl)amino]-4-(2-methyl-1H-imidazol-1-yl)pyrimidin-5-yl}pyridine-3-carboxylic acid] | 80
21 | O=C(O)c1cncc(-c2cnc(Nc3ccc(F)c(Cl)c3)nc2-n2cccc2)c1 [Example 311, 5-{2-[(3-chloro-4-fluorophenyl)amino]-4-(1H-pyrrol-1-yl)pyrimidin-5-yl}pyridine-3-carboxylic acid] | 81.8
22 | O=C(O)/C=C/c1cccc(-c2cnc(Nc3ccc(F)c(Cl)c3)nc2-n2cc(-c3ccncc3)cn2)c1 [Example 312, (2E)-3-(3-{2-[(3-chloro-4-fluorophenyl)amino]-4-[4-(pyridin-4-yl)-1H-pyrazol-1-yl]pyrimidin-5-yl}phenyl)prop-2-enoic acid] | 101
23 | O=C(O)/C=C/c1cccc(-c2cnc(Nc3ccc(F)c(Cl)c3)nc2-n2cc(Cl)cn2)c1 [Example 313, (2E)-3-(3-{2-[(3-chloro-4-fluorophenyl)amino]-4-(4-chloro-1H-pyrazol-1-yl)pyrimidin-5-yl}phenyl)prop-2-enoic acid] | 80.3
24 | Cc1nccn1-c1nc(Nc2ccc(F)c(Cl)c2)ncc1-c1cccc(/C=C/C(=O)O)c1 [Example 314, (2E)-3-(3-{2-[(3-chloro-4-fluorophenyl)amino]-4-(2-methyl-1H-imidazol-1-yl)pyrimidin-5-yl}phenyl)prop-2-enoic acid] | 83.4
